Laboratory results from paper PMC4729491, “The Cellular Thioredoxin-1/Thioredoxin Reductase-1 Driven Oxidoreduction Represents a Chemotherapeutic Target for HIV-1 Entry Inhibition” (PLoS ONE, 2016).

Tests used:
TrxR1 = target: T1, TrxR1 (Homo sapiens, UniProt Q16881); assay: Inhibition of TrxR1-dependent reduction of HIV-1 gp120 (ELISA); type: biochemical; conditions: 100 μM compound; 1 μM Trx1 + 100 nM TrxR1 + 240 μM NADPH; control without compound 38–54%
T1 construct: purchased IMCO Corporation (Stockholm, Sweden) or Sino Biological Inc (Zoersel, Belgium)
T1 sequence (Q16881 1-499 isoform Q16881-5): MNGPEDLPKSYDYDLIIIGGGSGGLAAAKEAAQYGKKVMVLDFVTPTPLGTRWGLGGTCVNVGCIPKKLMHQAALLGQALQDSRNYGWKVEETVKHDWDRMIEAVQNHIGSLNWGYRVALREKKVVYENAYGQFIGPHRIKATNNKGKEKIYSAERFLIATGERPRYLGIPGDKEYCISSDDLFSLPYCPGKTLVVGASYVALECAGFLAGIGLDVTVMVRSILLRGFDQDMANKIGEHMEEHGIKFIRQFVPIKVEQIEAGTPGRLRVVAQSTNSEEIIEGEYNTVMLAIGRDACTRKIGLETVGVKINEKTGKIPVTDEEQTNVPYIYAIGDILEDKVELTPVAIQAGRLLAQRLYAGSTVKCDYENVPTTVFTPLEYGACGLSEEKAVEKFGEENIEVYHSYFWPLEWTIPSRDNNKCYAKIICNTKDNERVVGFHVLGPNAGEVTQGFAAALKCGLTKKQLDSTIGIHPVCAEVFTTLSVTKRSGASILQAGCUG
Method: After coating 96-well Maxi-Sorp ELISA plates (Nunc Inc, Roskilde, Denmark) with 100 μl gp120 in PBS (2 μg/ml), these were blocked with PBST (phosphate buffered saline, pH 7.4 with 0.05% Tween 20) as described before). The experiment was performed with two different set-ups for each compound, but each reaction mixture contained 1 μM Trx1 + 100 nM TrxR1 + 240 μM NADPH + 100 μM of the compounds, with auranofin as an inhibition control. In the first set-up (TrxR1 + Trx1), the reaction mixtures were pre-incubated for 15 min at 37°C in the absence of the compounds, which were added after the preincubation period. In the second set-up (TrxR1 + compounds), the reaction mixtures were exposed to the different compounds, but in the absence of Trx1, which was added after the 15 min pre-incubation period. The reaction mixtures were then added to the gp120-coated wells to allow the reduction of gp120, incubated for 15 min at 37°C and then washed four times with PBST to remove any unbound material. Subsequently, the wells were incubated with 2 μM biotin-maleimide for 30 min at room temperature, then washed and incubated with steptavidine-ALP (diluted 1:1000) at room temperature. […] The absorbance at 405 nm was measured using a microplate reader (Wallac Perkin-Elmer).

[1] = test system: HuT-78/HIV-1 and Sup-T1 cells; assay: cells; type: cell-based; conditions: cocultures of HuT-78/HIV-1(IIIB) and Sup-T1 cells; data not shown
Method: Persistently infected HuT-78/HIV-1 cells were thoroughly washed to eliminate free virions. Next, 1 x 10^5 HuT-78/HIV-1 cells were co-cultivated with 1 x 10^5 Sup-T1 cells in 96-well plates (200 μl/well) during 20 h at 37°C, in the presence or absence of a serial dilution of compound. Afterwards, the formation of syncytia was evaluated microscopically. The EC50 was defined as the compound concentration required to suppress syncytia formation by 50%.

HIV = test system: HIV; design: method as in PMID 8895167; conditions: cited from earlier work
[2] = target: T2, HIV-1 reverse transcriptase (Human immunodeficiency virus type 1 group M subtype B, UniProt P04585); assay: Reverse transcriptase inhibition (Lenti RT Activity kit); type: biochemical; conditions: 25 μM; poly-A template, overnight
Method: The ability of the compounds to inhibit the activity of viral RT was determined by a Lenti RT Activity kit (Cavidi, Uppsala, Sweden) according to the manufacturer’s instructions. A poly-A-coated plate was incubated with the reaction bufferfor up to 1 h at 33°C. Then, a mixture of the virus preparation (see virus expression) and 25 μM of the test compounds or an inhibitor control (nevirapin) were added to the RT assay mixture and incubated overnight at 33°C. The plate was washed, exposed to the provided tracer for 90 min at 33°C and washed again, before the provided substrate was added to quantify the RT reaction that took place. The plate was incubated in the dark for 30 min and subsequently read at 405 nm in a Labsystem Multiskan RC (Artisan Technology Group, Champaign, IL, USA).

HIV-1 = assay: Infectivity assay in TZM-bl cells (luciferase); conditions: 10 μM, 40 h
Method: TZM-bl cells (1 x 10^5) were infected with diluted virus suspension (see virus expression) in a total volume of 0.2 ml DMEM medium in the presence of the compounds or an inhibitor control (nevirapine). After 40 h at 37°C, the luminescence was assayed and quantified in a Luminoskan Ascent (Thermo Labsystems, Schwerte, Germany) for luciferase activity using the OneGlo luciferase assay system (Promega, Nacka, Sweden).

[3] = target: T2, HIV-1 reverse transcriptase; design: method as in PMID 1376314; conditions: template poly rC.dG versus other templates ref 38; cited from earlier work

Row | SMILES | reduction of gp120 disulfide bonds, % of DTT (set at 100%) (TrxR1) | inhibition of syncytium formation [1] | CD4 counts (HIV; HIV-infected patients ref 9) | plasma HIV-RNA counts (HIV; HIV-infected patients treated for rheumatoid arthritis ref 9) | inhibition of RT polymerase activity [2] | inhibition of luminescence signal (HIV infection of TZM-bl) (HIV-1) | better inhibition efficacy with poly rC.dG than other templates [3]
1 | CC(=O)OC[C@H]1O[C@@H]([S-])[C@H](OC(C)=O)[C@@H](OC(C)=O)[C@@H]1OC(C)=O.CCP(CC)CC.[Au+] [auranofin] | 6–10% | failed to inhibit syncytium formation | increased the CD4 counts | lowered | – | – | –
2 | Cc1ccnc2c1NC(=O)c1cccnc1N2C1CC1 [nevirapine] | – | – | – | – | pronounced, however not complete inhibitory activity | full inhibition | ~ 10 fold
